Assay results as given in patent US20250287945A1, “COMPOSITIONS FOR FUNGAL CONTROL AND RELATED METHODS” (priority 2021, published 2025).
Several values for one entry are separate records, joined by “and”; a condition that tells them apart may be missing. Equal entries are not always repeated. Entries after “also recorded” stand apart in the source; their conditions may differ. Where two headings read alike, the source gives them in different places.

How the values were obtained:
[1] = system: Fusarium conidial suspension; test: Fusarium viability colorimetric assay (PrestoBlue resazurin); assay type: cell-based
Description: A Fusarium conidial suspension was prepared from a 7-day culture of Fusarium biomass grown on potato dextrose agar for 7 days, and quantified by hemocytometer, as described in Example 4. Solutions of fenpiclonil (Millipore Sigma, Cat. no. 36532) and of the individual peptides were prepared in 50% (w/v) ethanol in water, and tested using a PrestoBlue™ (resazurin) viability colorimetric assay as described in Example 4.
The Fusarium conidial suspension, peptide or control treatment solution, and potato dextrose broth (Alpha Biosciences, catalogue no. P16-126) were added to each well of a 96-well plate to obtain the desired treatment concentration and 1×10^6 conidia/mL in a final volume of 150 microliters per well. The plates were covered and incubated at 30° C. for 18 hours and 200 rpm. Fifteen microliters of PrestoBlue™ Cell Viability Reagent (Thermofisher Scientific, Cat no. A13262) were added to each well, and the plate was further incubated before measuring fluorescence at 590 nm emission with excitation at 560 nm using a spectrophotometer (BioTek Synergy H1 Microplate Reader, Fischer Scientific, Cat. no. 11-120-533).

[2] = system: Botrytis cinarea (strain CBS 261.71); test: Botrytis viability colorimetric assay (PrestoBlue resazurin); assay type: cell-based, Botrytis cinerea; conditions: for viability decrease relative to that obtained with the positive control (fenpiclonil): sentence prints Fusarium in the Botrytis assay
[3] = system: conidia of Fusarium proliferatum; test: oCelloScope live-cell imaging of fungal growth (SESA algorithm); assay type: cell-based
[4] = system: Aspergillus fumigatus CBS 120.53; test: Micro broth dilution assay in 96-well plates; assay type: cell-based; conditions: 3 days of incubation; 375 micromolar or 187.5 micromolar; preliminary
[5] = system: Aspergillus flavus DSM 1959; test: Micro broth dilution assay in 96-well plates; assay type: cell-based; conditions: 3 days of incubation; 375 micromolar or 187.5 micromolar; preliminary
[6] = system: Fusarium oxysporum CBS 130311; test: Micro broth dilution assay in 96-well plates; assay type: cell-based; conditions: 3 days of incubation; 375 micromolar or 187.5 micromolar; preliminary
[7] = system: Mucor circinelloides f. janssenii CBS 204.68; test: Micro broth dilution assay in 96-well plates; assay type: cell-based; conditions: 3 days of incubation; 375 micromolar or 187.5 micromolar; preliminary
[8] = system: Rhizomucor miehei CBS 147454; test: Micro broth dilution assay in 96-well plates; assay type: cell-based; conditions: 3 days of incubation; 375 micromolar or 187.5 micromolar; preliminary
[9] = system: Cryptococcus neoformans DSM 70219; test: Micro broth dilution assay in 96-well plates; assay type: cell-based; conditions: 2 days of incubation; 375 micromolar; preliminary
Botrytis cinerea = test: Fungal lesion size on detached Nicotiana benthamiana leaves after topical treatment; assay type: in vivo, Botrytis cinerea on Nicotiana benthamiana leaves
Description: In one experiment, leaves of similar age were cut from healthy Nicotiana benthamiana plants and the petioles set into plates containing water agar. Leaves were visually divided into quadrants. […] The plates were covered and placed in a humidified secondary container and incubated in a growth chamber under a 14-hour light (20 degrees C.): 10-hour dark (18 degrees C.) cycle. After 11 days, fungal lesions on leaves were photographed and measured manually with a ruler. Leaves were then destained in 70% ethanol for 48 hours with a change of ethanol at 24 hours, rehydrated in water for at least 1 hour, photographed, and the area of the fungal lesions quantified using ImageJ software (see imagej[dot]nih[dot]gov/ij/). […] The leaf quadrants inoculated with B. cinerea and treated with 100 microliters of treatment solution (MES buffer or HH38 in MES buffer) had comparatively larger areas wetted with liquid. All of the leaf quadrants treated with 5 mM MES buffer developed large (average 1.72 cm width) fungal lesions characterized by grey-black fungal growth. […] […] Twenty microliters of a given treatment mixture were pipetted onto a leaf quadrant (3 replicate leaves per treatment for a total of 12 quadrants). After 7 days incubation in a growth chamber, leaves were photographed, destained in 70% ethanol, photographed again, and the area of the fungal lesions quantified using ImageJ software. […] The fungal lesions in the HH38 treatment were also observed to be 39% smaller than in the 2% DMSO treatment, and 19% smaller than in the 5 mM MES treatment, although not to a statistically significant degree using an unpaired t test.

[10] = 375 micromolar, four replicates
[11] = first experiment, 275 micromolar HH38 in 5 mM MES buffer, after 11 days, lesion area by ImageJ, replicate leaves 1-3
[12] = first experiment, 275 micromolar HH38 in 5 mM MES buffer, after 11 days, ruler, replicate leaves 1-3
[13] = second experiment, inoculum pre-mixed with HH38, 7 days, ImageJ area, not statistically significant

| Sequence | Percent Inhibition (Fusarium), Experiment 5, Mean [1] | Percent Inhibition (Botrytis), Mean [2, 10] | statistical comparison of normalized values with the untreated control [3] | statistical significance of antifungal activity [3] | SESA value normalized against the untreated control, mean (x) ([3]; 22 hours) | Fusarium cell viability versus untreated / 50% ethanol carrier [1] | Percent Inhibition (Fusarium), Experiment 4, Mean [1] | inhibition of growth / growth pattern [4] | inhibition of growth / growth pattern [5] | inhibition of growth / growth pattern [6] | inhibition of growth / growth pattern [7] | inhibition of growth / growth pattern [8] | growth / growth pattern [9] | Botrytis cell viability versus untreated / 50% ethanol carrier ([2]; 375 micromolar) | viability decrease relative to that obtained with the positive control (fenpiclonil) ([2]; 375 micromolar) | other results |
| --- | --- | --- | --- | --- | --- | --- | --- | --- | --- | --- | --- | --- | --- | --- | --- | --- |
| GWHWLQLKPGQPMY (listed as Saccharomyces cerevisiae) [SEQ ID NO: 2187, Saccharomyces cerevisiae alpha pheromone with N-terminal glycine] | 66.96% | 66.96% | significantly lower than the untreated control | statistically significant antifungal activity | 0.519 and 0.367 |  |  |  |  |  |  |  |  |  |  |  |
| WCGRPGQPC (REGION 1..9: note = Botrytis spp.) [SEQ ID NO: 2183, Botrytis cinerea alpha pheromone] | 42.81% | −22.63% |  |  | 1.540 and 1.743 | decreasing Fusarium cell viability; also recorded: decreased Fusarium cell viability; also recorded: less pronounced | 46.67% | No inhibition of growth | No inhibition of growth | No inhibition of growth | No inhibition of growth | No inhibition of growth | reduced growth |  |  |  |
| WCTWKGQPCW [SEQ ID NO: 2182] | 28.39% |  |  |  |  | decreasing Fusarium cell viability; also recorded: decreased Fusarium cell viability; also recorded: less pronounced | 47.78% |  |  |  |  |  |  |  |  | Botrytis cell viability versus untreated / 50% ethanol carrier [2]: decreased Botrytis cell viability; Percent Inhibition (Botrytis), Mean [2]: 8.56%; SESA value normalized against the untreated control, mean (x) [3]: 1.554 and 1.510 |
| WHWLQLKPGQPMY (listed as Saccharomyces cerevisiae) [SEQ ID NO: 2184, Saccharomyces cerevisiae alpha pheromone] | 62.01% | 45.14% | significantly lower than the untreated control | statistically significant antifungal activity |  |  | 66.33% | No inhibition of growth | No inhibition of growth | No inhibition of growth | No inhibition of growth | No inhibition of growth | reduced growth | decreased Botrytis cell viability | roughly about two-thirds of the viability decrease obtained using the positive control |  |
| WHWLQLKPGQPMYG (listed as Saccharomyces cerevisiae) [SEQ ID NO: 2186, Saccharomyces cerevisiae alpha pheromone with C-terminal glycine] | 66.45% | 47.30% | significantly lower than the untreated control | statistically significant antifungal activity | 1.119 and 0.742 | greatly decreased Fusarium cell viability to about the same level as did the positive control | 64.21% |  |  |  |  |  |  |  |  |  |
| WHWLQLKPGQPMYGGGGSWHWLQLKPGQPMY (listed as Saccharomyces cerevisiae) [SEQ ID NO: 2189, Saccharomyces cerevisiae alpha pheromone homodimer including glycine linker] | 79.77% | 79.77% |  | statistically significant antifungal activity |  |  |  | sometimes induced changes in growth pattern | sometimes induced changes in growth pattern | sometimes induced changes in growth pattern | sometimes induced changes in growth pattern | sometimes induced changes in growth pattern | change this species' growth pattern | reducing Botrytis cell viability as well as did the fenpiclonil treatment | roughly about two-thirds of the viability decrease obtained using the positive control | Lesion 1 (cm) (Botrytis cinerea; first experiment, 275 micromolar HH38 in 5 mM MES buffer, 100 microliters per inoculated leaf quadrant, after 11 days, measured with a ruler, replicate leaves 1-3): 0 cm; Lesion 1 (pixels) (Botrytis cinerea; first experiment, 275 micromolar HH38 in 5 mM MES buffer, after 11 days, destained leaves, lesion area by ImageJ, replicate leaves 1-3): 0 pixels; Treatment Average (pixels) (Botrytis cinerea; first experiment, 275 micromolar HH38 in 5 mM MES buffer, after 11 days, lesion area by ImageJ, average of 3 leaves): 157 pixels; Replicate Averages (pixels) (Botrytis cinerea; first experiment, 275 micromolar HH38 in 5 mM MES buffer, after 11 days, lesion area by ImageJ, average of 4 quadrants): 0.00 pixels (2×) and 472 pixels; Lesion 2 (pixels) (Botrytis cinerea; [11]): 0 pixels (2×) and 1889 pixels; Lesion 3 (pixels) (Botrytis cinerea; [11]): 0 pixels; Lesion 4 (pixels) (Botrytis cinerea; [11]): 0 pixels; Treatment Average (cm) (Botrytis cinerea; first experiment, 275 micromolar HH38 in 5 mM MES buffer, after 11 days, ruler, average of 3 leaves): 0.042 cm; Average (cm) per replicate leaf (Botrytis cinerea; first experiment, 275 micromolar HH38 in 5 mM MES buffer, after 11 days, ruler, average of 4 quadrants): 0 cm (2×) and 0.12 cm; Lesion 2 (cm) (Botrytis cinerea; [12]): 0 cm (2×) and 0.5 cm; Lesion 3 (cm) (Botrytis cinerea; [12]): 0 cm; Lesion 4 (cm) (Botrytis cinerea; [12]): 0 cm; leaf quadrants that developed any measurable fungal lesion (Botrytis cinerea; first experiment, result sentence prints 375 micromolar HH38 (method: 275 micromolar), after 11 days): 1 out of 12; fungal lesions smaller than in the 5 mM MES treatment (Botrytis cinerea; [13]): 19%; fungal lesions smaller than in the 2% DMSO treatment (Botrytis cinerea; [13]): 39%; fungal lesions smaller than the untreated (diluted grape juice) control (Botrytis cinerea; second experiment, inoculum pre-mixed with in 2% DMSO in 5 mM MES buffer, 7 days, ImageJ area, statistically significant (unpaired t test)): 44% |
| WHWLQLKPGQPMYWHWLQLKPGQPMY (listed as Saccharomyces cerevisiae) [SEQ ID NO: 2188, Saccharomyces cerevisiae alpha pheromone homodimer with no linker] | 71.82% | 71.82% |  | statistically significant antifungal activity | 0.330 and 0.351 |  |  |  |  |  |  |  |  | reducing Botrytis cell viability as well as did the fenpiclonil treatment | roughly about two-thirds of the viability decrease obtained using the positive control |  |
| WKMGQYHQLPPLW [SEQ ID NO: 2185] | 69.60% | 52.30% |  |  |  | greatly decreased Fusarium cell viability to about the same level as did the positive control | 70.84% |  |  |  |  |  |  |  |  | SESA value normalized against the untreated control, mean (x) ([3]; 250 micromolar (nominal, filtered), 22 hours, 30% potato dextrose broth): 0.850; SESA value normalized against the untreated control, mean (x) ([3]; 375 micromolar (nominal, filtered), 22 hours, 30% potato dextrose broth): 0.439; statistical comparison of normalized values with the untreated control ([3]; nominal concentration of 375 micromolar): significantly lower than the untreated control |
